Measured values from patent US20110190263A1, “COMPOUNDS AND COMPOSITIONS AS MODULATORS OF GPR119 ACTIVITY” (IRM LLC, priority 2008, published 2011).

Biological target: T1, human GPR119 (Homo sapiens, UniProt Q8TDV5)
T1 construct: expressed in transfected cells
T1 sequence (Q8TDV5 1-335): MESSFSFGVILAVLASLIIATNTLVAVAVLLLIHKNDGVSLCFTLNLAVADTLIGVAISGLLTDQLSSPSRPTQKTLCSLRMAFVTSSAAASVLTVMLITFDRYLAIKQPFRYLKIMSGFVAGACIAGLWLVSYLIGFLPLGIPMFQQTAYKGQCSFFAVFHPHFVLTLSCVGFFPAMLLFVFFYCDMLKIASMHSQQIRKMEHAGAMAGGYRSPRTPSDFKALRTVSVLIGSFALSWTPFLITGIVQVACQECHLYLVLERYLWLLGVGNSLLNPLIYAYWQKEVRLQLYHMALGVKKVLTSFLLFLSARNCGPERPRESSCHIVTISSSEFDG
Experiment: Cyclic AMP assay in stable cell line (Flp-In-CHO-hGPR119, HTRF)
Format: cell-based
Settings: Flp-In-CHO-hGPR119 cells, intracellular cAMP by HTRF, 1 mM IBMX, 37° C. for 30 minutes
Description: Flp-In-CHO cells (Invitrogen, Cat.# R758-07) are maintained in Ham's F12 medium supplemented with 10% fetal bovine serum, 1% antibiotic mixture and 2 mM L-glutamine. The cells are transfected with a DNA mixture containing human GPR119 in pcDNA5/FRT vector and the pOG44 vector (1:9) using Fugene6 (Roche), according to the manufacturer's instruction. After 48 hours, the medium is changed to medium supplemented with 400 μg/ml hygromycin B to initiate the selection of stably transfected cells.
To test the activity of compounds of the invention, Flp-In-CHO-hGPR119 cells are harvested and resuspended in DMEM plus 3% lipid-depleted fetal bovine serum. Forth μl of cells are plated in 384 well plates at a density of 15,000 cells/well. IBMX (3-isobutyl-1-methyl-xanthine) is added to the cells to a final concentration of 1 mM, followed by the addition of 500 nl of the compound to be tested. The cells are incubated at 37° C. for 30 minutes. Equal volume (20 μl) of the HTRF reagents, anti-cAMP-Cryptate and cAMP-XL665, are added to the cells. The plates are incubated at room temperature for 1 hour and read on a HTRF reader according to the manufacturer's instruction.

EC50	SMILES
1020 nM	CS(=O)(=O)N1CCc2nc(OCCCc3ccc(-n4cccn4)nc3)ncc2C1 [Example G16, 5-[3-({6-methanesulfonyl-5H,6H,7H,8H-pyrido[4,3-d]pyrimidin-2-yl}oxy)propyl]-2-(1H-pyrazol-1-yl)pyridine]
9 nM	CCc1cnc(N2CCC(COC3CN(c4ncc5c(n4)CCN(S(C)(=O)=O)C5)C3)CC2)nc1 [Example G1, 2-(3-((1-(5-Ethylpyrimidin-2-yl)piperidin-4-yl)methoxy)azetidin-1-yl)-6-(methylsulfonyl)-5,6,7,8-tetrahydropyrido[4,3-d]pyrimidine]
174 nM	C[C@H]1CN(C(=O)OC2(C)CC2)CC[C@H]1COC1CN(c2ncc3c(n2)CCN(S(C)(=O)=O)C3)C1 [Example J2, 1-methylcyclopropyl(3R,4R)-4-{[(1-{6-methanesulfonyl-5H,6H,7H,8H-pyrido[4,3-d]pyrimidin-2-yl}azetidin-3-yl)oxy]methyl}-3-methylpiperidine-1-carboxylate]
170 nM	CC(C)c1noc(N2CCC(COC3CN(c4ncc5c(n4)CCN(S(C)(=O)=O)C5)C3)CC2)n1 [Example G11]
22 nM	CC(C)(C)OC(=O)N1CC(OCC2CCN(c3ncc4c(n3)CCN(S(C)(=O)=O)C4)CC2)C1 [Example G7]
212 nM	CCc1cnc(N2CCC(OCCOc3ncc4c(n3)CCN(S(C)(=O)=O)C4)CC2)nc1 [Example E1, 2-(2-(1-(5-ethylpyrimidin-2-yl)piperidin-4-yloxy)ethoxy)-6-(methylsulfonyl)-5,6,7,8-tetrahydropyrido[4,3-d]pyrimidine]
711 nM	CO[C@H]1CN(C(=O)OC2(C)CC2)CC[C@H]1COC1CN(c2ncc3c(n2)CCN(S(C)(=O)=O)C3)C1 (racemic) [Example J1, (±)-(3R,45)-1-Methylcyclopropyl 3-methoxy-4-((1-(6-(methylsulfonyl)-5,6,7,8-tetrahydropyrido[4,3-d]pyrimidin-2-yl)azetidin-3-yloxy)methyl)piperidine-1-carboxylate]
317 nM	CCc1cnc(N2CCC(COC3CCN(c4ncc5c(n4)CCN(S(C)(=O)=O)C5)CC3)CC2)nc1 [Example G9]
183 nM	CCc1cnc(N2CCC(C(C)OC3CN(c4ncc5c(n4)CCN(S(C)(=O)=O)C5)C3)CC2)nc1 (racemic) [Example H1, (±)-2-(3-(1-(1-(5-Ethylpyrimidin-2-yl)piperidin-4-yl)ethoxy)azetidin-1-yl)-6-(methylsulfonyl)-5,6,7,8-tetrahydropyrido[4,3-d]pyrimidine]
28 nM	CC1(OC(=O)N2CCC(COC3CN(c4ncc5c(n4)CCN(S(C)(=O)=O)C5)C3)CC2)CC1 [Example G6]
366 nM	CCc1cnc(-c2ccc(CCCOc3ncc4c(n3)CCN(S(C)(=O)=O)C4)cc2)nc1 [Example G15, 5-ethyl-2-{4-[3-({6-methanesulfonyl-5H,6H,7H,8H-pyrido[4,3-d]pyrimidin-2-yl}oxy)propyl]phenyl}pyrimidine]
49 nM	CCc1cnc(N2CCc3c(cccc3OC3CN(c4ncc5c(n4)CCN(S(C)(=O)=O)C5)C3)C2)nc1 [Example I1, 2-(3-(2-(5-Ethylpyrimidin-2-yl)-1,2,3,4-tetrahydroisoquinolin-5-yloxy)azetidin-1-yl)-6-(methylsulfonyl)-5,6,7,8-tetrahydropyrido[4,3-d]pyrimidine]
27 nM	CCc1cnc(N2CCC(CCCOc3ccc4c(n3)CCN(S(C)(=O)=O)C4)CC2)nc1 [Example F1, 2-(3-(1-(5-Ethylpyrimidin-2-yl)piperidin-4-yl)propoxy)-6-(methylsulfonyl)-5,6,7,8-tetrahydro-1,6-naphthyridine]
666 nM	CCc1cnc(N2CCC(COCC3CN(c4ncc5c(n4)CCN(S(C)(=O)=O)C5)C3)CC2)nc1 [Example G5]
122 nM	CC1(OC(=O)N2CCC(Cc3cn(-c4ncc5c(n4)CCN(S(C)(=O)=O)C5)cn3)CC2)CC1 [Example G18, 1-methylcyclopropyl 4-[(1-{6-methanesulfonyl-5H,6H,7H,8H-pyrido[4,3-d]pyrimidin-2-yl}-1H-imidazol-4-yl)methyl]piperidine-1-carboxylate]

The next lines start with the compound.

SMILES	EC50
CC(C)c1noc(N2CCC(CCCNc3ncc4c(n3)CCN(S(C)(=O)=O)C4)CC2)n1 [Example D4, N-(3-(1-(3-isopropyl-1,2,4-oxadiazol-5-yl)piperidin-4-yl)propyl)-6-(methylsulfonyl)-5,6,7,8-tetrahydropyrido[4,3-d]pyrimidin-2-amine]	6 nM
CC1(OC(=O)N2CCC(CCOCc3ncc4c(n3)CCN(S(C)(=O)=O)C4)CC2)CC1 [Example C1, 1-Methylcyclopropyl 4-(2-((6-(methylsulfonyl)-5,6,7,8-tetrahydropyrido[4,3-d]pyrimidin-2-yl)methoxy)ethyl)piperidine-1-carboxylate]	514 nM
CN(CCCC1CCN(C(=O)OC2(C)CC2)CC1)c1ncc2c(n1)CCN(S(C)(=O)=O)C2 [Example D8, 1-methylcyclopropyl 4-(3-(methyl(6-(methylsulfonyl)-5,6,7,8-tetrahydropyrido[4,3-d]pyrimidin-2-yl)amino)propyl)piperidine-1-carboxylate]	10 nM
CC(C)OC(=O)N1CCC(CCCCn2ccc3c(c2=O)CCN(S(C)(=O)=O)C3)CC1 [Example A7, isopropyl 4-(4-(6-(methylsulfonyl)-1-oxo-5,6,7,8-tetrahydro-2,6-naphthyridin-2(1H)-yl)butyl)piperidine-1-carboxylate]	94 nM
CCc1cnc(N2CCC(CCCOc3ncc4c(n3)CCN(S(=O)(=O)CCCO)C4)CC2)nc1 [Example D9, 3-(2-{3-[1-(5-ethylpyrimidin-2-yl)piperidin-4-yl]propoxy}-5H,6H,7H,8H-pyrido[4,3-d]pyrimidine-6-sulfonyl)propan-1-ol]	5 nM
CCc1cnc(N2CCC(CCCNc3ncc4c(n3)CCN(S(C)(=O)=O)C4)CC2)nc1 [Example D5, N-(3-(1-(5-Ethylpyrimidin-2-yl)piperidin-4-yl)propyl)-6-(methylsulfonyl)-5,6,7,8-tetrahydropyrido[4,3-d]pyrimidin-2-amine]	7 nM
CC1(OC(=O)N2CCC(CCCNc3ncc4c(n3)CCN(S(C)(=O)=O)C4)CC2)CC1 [Example D7, 1-methylcyclopropyl 4-(3-(6-(methylsulfonyl)-5,6,7,8-tetrahydropyrido[4,3-d]pyrimidin-2-ylamino)propyl)piperidine-1-carboxylate]	8 nM
CC(C)OC(=O)N1CCC(Oc2nccc3c2CCN(S(C)(=O)=O)C3)CC1 [Example A4, isopropyl 4-(6-(methylsulfonyl)-5,6,7,8-tetrahydro-2,6-naphthyridin-1-yloxy)piperidine-1-carboxylate]	3710 nM
CC1(OC(=O)N2CCC(CCCOc3ncc4c(n3)CCN(S(C)(=O)=O)C4)CC2)CC1 [Example D2, 1-Methylcyclopropyl 4-(3-(6-(methylsulfonyl)-5,6,7,8-tetrahydropyrido[4,3-d]pyrimidin-2-yloxy)propyl)piperidine-1-carboxylate]	2 nM
CCc1cnc(N2CCC(CCCOc3ncc4c(n3)CCN(S(C)(=O)=O)C4)CC2)nc1 [Example D3, 2-(3-(1-(5-Ethylpyrimidin-2-yl)piperidin-4-yl)propoxy)-6-(methylsulfonyl)-5,6,7,8-tetrahydropyrido[4,3-d]pyrimidine]	4 nM
CC(C)OC(=O)N1CCC(N2CCC3CN(S(C)(=O)=O)CCC3C2=O)CC1 (centres unmarked) [Example A5, isopropyl 4-(6-(methylsulfonyl)-1-oxooctahydro-2,6-naphthyridin-2(1H)-yl)piperidine-1-carboxylate]	4360 nM
CS(=O)(=O)N1CCc2nc(CNCCc3cccc(Br)c3)ncc2C1 [Example B3, 2-(3-bromophenyl)-N-((6-(methylsulfonyl)-5,6,7,8-tetrahydropyrido[4,3-d]pyrimidin-2-yl)methyl)ethanamine]	2440 nM
CC(C)OC(=O)N1CCC(CCCCOC2=NCCC3CN(S(C)(=O)=O)CCC23)CC1 (centres unmarked) [Example A8, isopropyl 4-(4-(6-(methylsulfonyl)-3,4,4a,5,6,7,8,8a-octahydro-2,6-naphthyridin-1-yloxy)butyl)piperidine-1-carboxylate]	137 nM
CC(C)OC(=O)N1CCC(CCCCOc2nccc3c2CCN(S(C)(=O)=O)C3)CC1 [Example A9, isopropyl 4-(4-(6-(methylsulfonyl)-5,6,7,8-tetrahydro-2,6-naphthyridin-1-yloxy)butyl)piperidine-1-carboxylate]	191 nM
